Assay results from ChEMBL document CHEMBL1212718, “Persistent signaling induced by FTY720-phosphate is mediated by internalized S1P1 receptors” (Nat Chem Biol, 2009).
Active and inactive are the calls of the source.

Assays:
[1] = molecular target: Sphingosine 1-phosphate receptor 1 (Homo sapiens) (UniProt P21453); assay: Induction of human S1P1 receptor internalization expressed in CHO cells at 1 uM after 60 mins; format: cell-based
[2] = molecular target: Sphingosine 1-phosphate receptor 1 (Homo sapiens) (UniProt P21453); assay: Induction of human S1P1 receptor internalization expressed in CHO cells pretreated at 1 uM for 1 hr measured after 5 hrs washout period; format: cell-based
[3] = molecular target: Sphingosine 1-phosphate receptor 1 (Homo sapiens) (UniProt P21453); assay: Agonist activity at human S1P1 receptor expressed in CHO cells assessed as inhibition of forskolin-stimulated cAMP formation pretreated at 1 uM for 1 hr measured after 5 hrs washout peroid; format: functional, cell-based
[4] = molecular target: Sphingosine 1-phosphate receptor 1 (Homo sapiens) (UniProt P21453); conditions: CHO, 1 uM
Description: Agonist activity at human S1P1 receptor expressed in CHO cells assessed as inhibition of forskolin-stimulated cAMP formation at 1 uM after 20 mins

[5] = molecular target: Sphingosine 1-phosphate receptor 1 (Homo sapiens) (UniProt P21453); conditions: CHO, 1 uM; remark: listed apart in the source
Description: Agonist activity at human S1P1 receptor expressed in CHO cells assessed as inhibition of forskolin-stimulated cAMP formation at 1 uM after 60 mins

Sphingosine 1-phosphate receptor 1 (Homo sapiens), sequence (P21453 whole entry): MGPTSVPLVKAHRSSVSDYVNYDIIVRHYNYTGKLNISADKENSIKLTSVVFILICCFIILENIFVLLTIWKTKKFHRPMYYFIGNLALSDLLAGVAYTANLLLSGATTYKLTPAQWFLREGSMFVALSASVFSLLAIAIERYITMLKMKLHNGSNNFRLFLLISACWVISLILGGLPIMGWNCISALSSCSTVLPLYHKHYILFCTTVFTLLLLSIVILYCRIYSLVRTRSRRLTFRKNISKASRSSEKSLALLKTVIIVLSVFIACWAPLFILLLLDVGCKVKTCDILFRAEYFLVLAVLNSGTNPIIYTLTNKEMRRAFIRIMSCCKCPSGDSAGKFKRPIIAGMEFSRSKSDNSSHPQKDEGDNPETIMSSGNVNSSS

CCCCCCCCCCCCC/C=C/[C@@H](O)[C@@H](N)COP(=O)(O)O
active: Activity [1] | Activity [2] | inhibition [3] | inhibition [4] | inhibition [5]
